Results published in patent publication EP3067058A1, “BIOLOGICAL COMPOSITION BASED ON ENGINEERED LACTOBACILLUS PARACASEI SUBSP. PARACASEI F19 FOR THE BIOSYNTHESIS OF CANNABINOIDS” (Farmagens Health Care Srl, priority 2015, dated 2016).

Key:
[1] = tested on: Bax; assay: Immunoblot of pro-apoptotic Bax protein in Caco-2 cells; assay type: cell-based, human; settings: 96 hrs incubation; 10^11 cfu; caproic acid 0.003-0.3µg/ml
Protocol: (§1) Caco-2 cell colture. Caco-2 cells were cultured in Dulbecco's Modified Eagle's Medium (DMEM) supplemented with 5% Foetal Bovine Serum (FBS), 2 mM glutamine, 100 U/mL penicillin, 100 µg/mL streptomycin at 37 °C in 5% CO2/95% air. At confluence cells were washed three times with Phosphate Buffer Saline (PBS), detached with tripsyn/EDTA, plated in 10 cm diameter Petri dishes and left to adhere for 24 hrs. Thereafter, DMEM was replaced with fresh medium and cells were treated for 96 hrs with 10^11 cfu LP OAC-CAS-OLS-CsPT1^+, with caproic acid 0.003-0.3µg/ml or LP empty vector with caproic acid 0.003-0.3µg/ml.
The pro-apoptotic effect in Caco-2 cell cultured in the presence of LP OAC-CAS-OLS-CsPT1+ or LP empty vector was tested by immunoblot analysis of pro-apoptotic proteins level (Bax), as well as by rate of cells proliferation (MTT).
Immunoblot of Bax protein. Briefly, after homogenization in ice-cold hypotonic lysis buffer, protein concentration was determined using Bio-Rad protein assay kit (Bio-Rad, Milan, Italy). Analysis of Bax and β-actin protein expression was performed on total protein fractions of homogenates. Equivalent amounts (30 µg) of each homogenate underwent electrophoresis through a polyacrilamide minigel. […] Protein bands were then scanned and densitometrically analyzed with a GS-700 imaging densitometer.

[2] = tested on: Caco-2 cells; assay: MTT proliferation assay in human colon carcinoma cells; assay type: cell-based; settings: 96 hrs incubation; 10^11 cfu; caproic acid 0.003-0.3µg/ml
Protocol: To confirm the chemo-preventive action of cannabidiol in the experimental conditions, a study on the putative pro-apoptotic and anticancer activity exerted by LP OAC-CAS-OLS-CsPT1+ probiotic was tested in vitro in human colon carcinoma cells. CBD release in human colon carcinoma cell line was measured at the different time points.
as §1, with “Thereafter, DMEM was replaced with fresh medium and cells were treated for 96 hrs with 10^11 cfu LP OAC-CAS-OLS-CsPT1^+, with caproic acid 0.003-0.3µg/ml or LP empty vector with caproic acid 0.003-0.3µg/ml.” left out
MTT Proliferation and survival assays. Cell proliferation was evaluated by 3-[4,5-dimethylthiazol-2-yl]-2,5 diphenyltetrazolium bromide (MTT) assay. […] After this time point, the cells were lysed and the dark blue crystals solubilized with 125 µl of a solution containing 50% (N,N-dimethylformamide, 20% (w/v) sodium dodecylsulphate (pH 4.5). The optical density (OD) of each well was measured with a Perkin-Elmer (Waltham, MA, USA) microplate spectrophotometer equipped with a 620 nm filter. Cell viability in response to pentamidine was calculated as % cell viability (OD treated/OC control) X 100.

[3] = smoking; cited from earlier work

Compound	expression level of the pro-apoptotic protein Bax-2 [1]	cell proliferation (MTT) [2]	Δ^9-THC content in a cannabis cigarette that is absorbed [3]
CCCCCC(=O)O [caproic acid]	no significant effect	no significant effect	–
CCCCCc1cc(O)c2c(c1)OC(C)(C)[C@@H]1CCC(C)=C[C@@H]21 [Δ^9-THC, (-)-trans-Δ9-tetrahydrocannabinol]	–	–	about 20%
